Data on 8 compounds can be found in patent publication US20260085039A1 (priority 2022, published 2026).

For series [1] the following is noted: acid for salt screen; cited from earlier work.
A short description of series [2]: Solubility (appearance) and pH in saline. Format: physicochemical.
The nature of series [3]: Approximate solubility by solvent aliquot addition, visual inspection, ambient temperature. The series is classed as physicochemical. On the procedure: Weighed samples were treated with aliquots of designated solvent at ambient temperature. Complete dissolution of the test material was determined by visual inspection. Solubility was estimated based on the total solvent volume used to provide the complete dissolution. If complete dissolution was achieved by only one aliquot addition, the value is reported as “larger than”; if complete dissolution was not achieved, the value is reported as “less than”. The actual solubility may be greater than the value calculated because of the use of solvent aliquots that were too large or due to a slow rate of dissolution.

A short description of series [4]: Observation of solubility samples after 1 day ambient storage (discoloration). Format: physicochemical. From the text:
The solubility estimates were utilized to design experiments for the salt screen.

Series [5] is described as follows: Stability in saline by HPLC psilocin peak area over time. The following applies: aqueous solution such as saline, 36 hours.
Series [6] is described as follows: Drying studies, form by XRPD after vacuum drying. The following applies: RT, 1 d. The series is classed as physicochemical. On the procedure:
XRPD patterns were collected with a PANalytical X'Pert PRO MPD or Empyrean diffractometer using an incident beam of Cu radiation produced using an Optix long, fine-focus source. An elliptically graded multilayer mirror was used to focus Cu Kα X-ray radiation through the specimen and onto the detector. Prior to the analysis, a silicon specimen (NIST SRM 640f) was analyzed to verify the observed position of the Si (111) peak is consistent with the NIST-certified position. A specimen of the sample was sandwiched between 3-μm-thick films and analyzed in transmission geometry. A beam-stop, short antiscatter extension, and antiscatter knife edge were used to minimize the background generated by air. Soller slits for the incident and diffracted beams were used to minimize broadening from axial divergence. Diffraction patterns were collected using a scanning position-sensitive detector (X'Celerator) located 240 mm from the specimen and Data Collector software v. 5.5.

Values after ≈ are worked out from the molar mass of the structure shown. “Also recorded” adds a separate entry of the source. Where two headings read alike, the source gives them in different places.

`O=C1O[C@H]([C@H](O)CO)C(O)=C1O` [Erythorbic acid]: the pKa1 in series [1] is on record as 2.1.
In the case of `CCCC(=O)O.CN(C)CCc1c[nH]c2cccc(O)c12` [Psilocin butyrate], in series [2] (1.0 mg/mL in saline), the Appearance in solution entry is “Visually soluble, clear solution” and the pH worked out at 6.281.
Regarding `O=C1CC[C@@H](C(=O)O)N1` [Pyrogluatmic acid], the pKa1 in series [1] was 3.32.
`CN(C)CCc1c[nH]c2cccc(O)c12` [psilocin, 4-hydroxy-N,N-dimethyltryptamine]: the solubility in series [3] (ACN, ambient temperature, estimated) is 9 mg/mL (≈ 44.1 mM); in series [3] (EtOAc, ambient temperature, estimated), 8 mg/mL (≈ 39.2 mM); in series [3] (ethanol, organic solvent or mixture, thermodynamic from solid, EtOH, ambient temperature, estimated, read-out: Solubility) it was less than 1 mg/mL; in series [3] (methanol, organic solvent or mixture, thermodynamic from solid, MeOH, ambient temperature, estimated, read-out: Solubility), less than 1 mg/mL; in series [3] (organic solvent or mixture, thermodynamic from solid, Acetone, ambient temperature, estimated, read-out: Solubility), 20 mg/mL (≈ 97.9 mM); in series [3] (organic solvent or mixture, thermodynamic from solid, Dioxane, ambient temperature, estimated, read-out: Solubility) it was 18 mg/mL (≈ 88.1 mM). For the same compound, the solubility in series [3] (other organic solvents (not water, not alcohols), organic solvent or mixture, thermodynamic from solid, read-out: Solubility) was not below 8 mg/mL; in series [3] (tetrahydrofuran, organic solvent or mixture, thermodynamic from solid, THF, ambient temperature, estimated, read-out: Solubility), 18 mg/mL (≈ 88.1 mM); in series [3] (water and alcohols), “poorly soluble”; in series [3] (water, thermodynamic from solid, H20, ambient temperature, estimated, read-out: Solubility), less than 1 mg/mL. Moreover, the “Observation after 1 day ambient storage” value in series [4] (ACN) was “No discoloration”; in series [4] (Acetone), “No discoloration”; in series [4] (Dioxane), “No discoloration”; in series [4] (EtOAc), “No discoloration”; in series [4] (EtOH), “No discoloration”; in series [4] (H20), “Discoloration (black suspension)”. The “Observation after 1 day ambient storage” value in series [4] (H20, listed as Psilocin free base) is reported as “strong discoloration (black)”; in series [4] (MeOH) it was “No discoloration”; in series [4] (THF), “No discoloration”. The Appearance in solution entry in series [2] (0.1 mg/mL in saline) is reported as “Visually soluble, clear solution”; in series [2] (1.0 mg/mL in saline), “Cloudy solution, not soluble”. The pH came out at 9.053 in series [2] (0.1 mg/mL in saline) and 9.395 in series [2] (1.0 mg/mL in saline). In series [5], the “decrease in the amount of psilocin present over time” value is not below 15%.
With `O=S(=O)(O)c1ccccc1` [Benzesulfonic acid], the pKa1 in series [1] was 0.17.
Consider `O=C(O)C=C(CC(=O)O)C(=O)O` [Aconitic acid], for which the pKa1 in series [1] is reported as 2.80.
On to `C/C=C/C=C/C(=O)O` [Sorbic acid], for which the pKa1 in series [1] is 4.75.
Turning to `CN(C)CCc1c[nH]c2cccc(O)c12.O=C(O)c1ccccc1` [Benzoate Form A], the “XRPD Result after drying” value in series [6] was “maintains the same form; also recorded: Benzoate Form A”.
